Laboratory results as given in PubChem BioAssay (NCI).
Values joined by “and” are separate entries in the source; they are usually repeats but may differ in a detail not shown here. Equal entries are not always repeated.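 Five concentrations, 48 hours, 96-well plates. Abbreviation: GI50, concentration required for 50% inhibition of growth. Definition used: TGI = concentration required for complete inhibition of growth.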

Tests used:
Assay in all cases: NCI tumour cell line growth inhibition, 48 h
MDA-N = system: MDA-N
BT-549 breast = system: BT-549 breast
T-47D breast = system: T-47D breast
HOP-18 NSCLC = system: HOP-18 NSCLC
RXF-631 renal = system: RXF-631 renal
XF 498 CNS = system: XF 498 CNS

Row | Compound | TGI (MDA-N) [µM] | TGI (BT-549 breast) | TGI (T-47D breast) | GI50 (T-47D breast) [µM] | GI50 (BT-549 breast) [µM] | TGI (HOP-18 NSCLC) [µM] | TGI (RXF-631 renal) [µM] | TGI (XF 498 CNS) [µM]
1 | CC(=O)NC1=NC(=O)/C(=C/c2ccc(Cl)cc2Cl)N1C | > 100 | > 100 µM |  |  |  |  |  | 
2 | c1ccc2c(c1)N=c1ccccc1=P21c2ccccc2Nc2ccccc21 | 4.07 | 2.63 µM | 1.63 µM |  |  |  |  | 
3 | O=C(O)/C=C/C(=O)Nc1cccc2c1-c1ccccc1C2=O | 12.1 | > 100 µM | > 100 µM |  |  |  |  | 
4 | CN1CCN(c2nc(NCCNc3ccnc4cc(Cl)ccc34)c3ccccc3n2)CC1 |  | 12.8 µM | 4.79 µM | 1.94 | 3.49 |  |  | 
5 | COc1cc2c(cc1OC)[C@@H]1[C@H](C2=O)c2ccc([N+](=O)[O-])cc2C(=O)N1CCCBr |  | 23.9 µM | > 100 µM | < 0.01 | 1.96 |  |  | 
6 | CC(=O)OC1CC[C@@]2(C)C(CC(OC3OC(CO)C(O)C(O)C3O)[C@]3(C)C2CCC24CC23CC[C@H]4C(C)CC(O)[C@@H](O)C(C)(C)O)C1(C)C (stereo partly drawn) |  |  |  |  |  | 41 | > 50 | 
7 | COC(=O)CC[C@@H](NC(=O)C(C)NC(=O)COC1C(O)C(COC(=O)CCCCCCCCCCNC(=O)c2ccc([N+](=O)[O-])c3[nH]c4cc(Br)ccc4c(=O)c23)OC(OCc2ccccc2)C1NC(C)=O)C(N)=O (stereo partly drawn) |  |  |  |  |  | > 100 |  | > 100
8 | O=C(N/C(=C\c1cc(Cl)ccc1Cl)c1nc2ccccc2[nH]1)c1ccccc1 |  |  |  |  |  |  | > 100 | 69
9 | OCCOCn1nc(-c2ccccc2)nc1-c1cnccn1 | > 100 | > 100 µM | > 100 µM |  |  |  |  | 
10 | COC1=C(NC(C)=O)C(=O)c2nc3n(c2C1=O)CCC3 | 6.84 |  | 72.7 µM |  |  | 39.1 |  | 33.6
11 | CCCCc1c2c(nc3c1CCc1cc(C=O)c(N)nc1-3)/C(=C/c1ccccc1)CCC2 |  |  |  |  |  | > 100 |  | > 100
12 | Cc1cc(CC(O)(C(F)(F)F)C(F)(F)F)cc(CC(O)(C(F)(F)F)C(F)(F)F)n1 | 13 |  | 7.3 µM |  |  |  |  | 
13 | O=C(O)CSc1ccn(Cc2ccccc2)c1 | > 100 | > 100 µM | > 100 µM |  |  |  |  | 
14 | O=C(NCCc1ccccc1)C(c1csc2ccccc12)N(C(=O)CCl)c1ccc(-c2cnco2)cc1 (stereo not drawn) |  | 0.574 µM | 2.89 µM | 1.02 | 0.228 |  |  | 
15 | COc1ccc(C2CC(c3cccc(Nc4ccnc5cc(Cl)ccc45)c3)=NN2c2ccccc2)cc1 (stereo not drawn) |  | 39.2 µM | 20 µM | 0.171 | 7.42 |  |  | 
16 | COC(=O)C1=C(O)C(C(=O)OC)[C@@]2(O)[C@@H](C(=O)OC)C(c3ccc(OC(=O)C(Cc4ccccc4)NC(C)=O)cc3)C[C@@H]1[C@@H]2C(=O)OC (stereo partly drawn) |  | > 100 µM | > 100 µM | 39.2 | 38 |  |  | 
17 | CC(=O)OCC1OC(n2c(-c3ccc(N)cc3)cc(-c3ccco3)c(C#N)c2=O)C(OC(C)=O)C(OC(C)=O)C1OC(C)=O (stereo not drawn) |  |  |  |  |  | > 50 | > 50 | 
18 | NNC(=S)N/N=C(\c1nc2ccc(Cl)cc2[nH]c1=O)C(O)c1ccc(Cl)cc1Cl (stereo not drawn) |  |  |  |  |  | > 100 | > 100 | > 100
19 | CCCCC#Cc1c(I)n(C2OC(CO[Si](C)(C)C(C)(C)C)C3OC(C)(C)OC32)c(=O)[nH]c1=O (stereo not drawn) |  | 28.7 µM |  |  | 14.8 |  |  | 

Row | Compound | TGI (MDA-N) [µM] | TGI (BT-549 breast) | TGI (T-47D breast) | GI50 (T-47D breast) [µM] | GI50 (BT-549 breast) [µM] | TGI (HOP-18 NSCLC) [µM] | TGI (RXF-631 renal) [µM] | TGI (XF 498 CNS) [µM]
20 | COc1ccc(-c2cc(-c3ccco3)c(C#N)c(=O)n2C2OC(OC(=O)c3ccccc3)C(OC(=O)c3ccccc3)C2OC(=O)c2ccccc2)cc1 (stereo not drawn) |  |  |  |  |  | > 100 | > 100 | 
21 | O=C(CC1Sc2ccccc2NC1=O)Nc1ccc([N+](=O)[O-])cc1[N+](=O)[O-] (stereo not drawn) |  |  |  |  |  | 46 | 41.4 | 
22 | N=C(N)c1ccc(-c2ccc(-c3ccco3)o2)cc1 |  | 19.8 µM | 12.7 µM | 2.92 | 5.9 |  |  | 
23 | Oc1ccc(Br)cc1CN1CCN(Cc2ccc(Cl)cc2)CC1 |  | > 100 µM | > 100 µM | 8.9 | 38.2 |  |  | 
24 | O=C(CCCCCCCCC(=O)OCCCn1cc(C(=O)NC(=O)OCc2ccccc2)c(=O)[nH]c1=O)OCCCn1cc(C(=O)NC(=O)OCc2ccccc2)c(=O)[nH]c1=O |  |  |  |  |  | > 100 | > 100 | 
25 | COc1cc(C2C3=C(COC3=O)N(CCO)c3cc4c(cc32)OCCO4)cc(OC)c1O (stereo not drawn) |  | > 27.8 µM | > 50 µM | 3.38 | 5.71 |  |  | 
26 | COc1cc2c3c(c1OC)C1(C=CC(=O)C=C1)CC3N(C(=O)OC(C)(C)C(Cl)(Cl)Cl)CC2 (stereo not drawn) |  |  |  |  |  | 50.4 |  | 23.9
27 | C[N+](C)(C)CC(=O)NC(=O)N/N=C\C(CC#N)CN(Cc1ccccc1)Cc1ccccc1 (stereo not drawn) |  |  |  |  |  | > 100 | > 100 | > 100
28 | C=CC[n+]1c(/C=C2\Sc3ccccc3N2C)sc(-c2ccccc2)c1-c1ccccc1 |  | 0.907 µM | 0.782 µM | 0.242 | 0.296 |  |  | 
29 | O=C(CCCCCn1c2ccccc2c2c3c(c4c5ccccc5[nH]c4c21)C(=O)N(O)C3=O)N1CCOCC1 |  |  | 7.89 µM | 2.61 |  |  |  | 
30 | Nc1nc(Cl)cc2c1ncn2C1OC(CO)C(O)C1O (stereo not drawn) |  | > 100 µM | > 100 µM | > 100 | > 100 |  |  | 
31 | CC(C)=CCNc1ncnc2c1ncn2C1OC(COP(=O)(O)O)C(O)C1O (stereo not drawn) |  | 6.81 µM | 25.4 µM | 4.96 | 2.43 |  |  | 
32 | COc1cc(OC)c(Oc2cccc(OC)c2OC)c(OC)c1 |  |  |  |  |  | 89.5 |  | > 100
33 | Cc1cc(C)c2nc(Nc3nc(C)c(C)c(=O)[nH]3)nc(C)c2c1 |  | 8.48 µM | 8.42 µM | 1.65 | 2.01 |  |  | 
34 | NS(=O)(=O)OC[C@H]1O[C@@H](n2cnc3c(N[C@H]4CCc5ccccc54)ncnc32)[C@H](O)[C@@H]1O |  | 0.081 µM | 1.41 µM | 0.156 | 0.0298 |  |  | 
35 | O=c1cc(N2CCOCC2)oc2c(-c3ccccc3)cccc12 | 50.3 | > 19.8 µM and 76.2 µM | 48.7 µM and 8.31 µM | 3.03 | 1.79 |  |  | 
36 | O=c1c2ccccc2oc2nccnc12 |  |  |  |  |  | > 100 | > 100 | > 100
37 | COc1ncn(C2C=C(CO)C(O)C2O)c(=O)n1 (stereo not drawn) |  |  |  |  |  | > 100 |  | 
38 | Cc1ccc(NC(=O)C(=O)C2C(=O)C3=C(CC2(C)C)NC2C=CC=CC2S3)c(C)c1 (stereo not drawn) | > 100 | > 100 µM |  |  |  |  |  | 
